Bounds are passed on as bounds.

Broadly, the melting point is the temperature, or range, at which the solid turns liquid. Turning to `O=C(O)C1Cc2c(c(Cl)cc3c(-c4cccs4)noc23)O1` (stereo not drawn), the melting point fell in the range of 249 to 251 °C. `Ic1ccc(OC2CCCC2)cc1` had a melting point of 50 to 52 °C. As for `CCCCCCCCc1c(CCCCCCCC)c2cc(Br)sc2c2sc(Br)cc12`, the figure is 63.8 to 65.2 °C; as for `CC(C)(C)OC(=O)N1CCCC(CCN2C(=O)C3(COc4cc5c(cc43)OCO5)c3ccccc32)C1` (stereo not drawn), 64 to 67 °C. `NC(=O)C1C(=O)NC(=O)C(C(N)=O)C12CCCCC2` (stereo not drawn) showed a melting point of more than 300 °C. Then `CC(C)(C)OC(=O)N1CCC(CI)CC1`, with 58 to 59 °C; and `NC(=O)c1cccc2c1OC(F)(F)O2`, with 130 to 131 °C; and `C=C(ON1C(=O)[C@@H](NC(=O)OC(C)(C)C)[C@@H]1C)C(=O)O`, with 127 to 130 °C.

Regarding `COC(=O)CCCCCC(c1ccccc1)c1c(C)c(O)c(C)c(C)c1OC(C)=O` (stereo not drawn), the melting point was in the range of 146 to 148 °C. Then `CC1Cc2c(n(-c3ccc(Cl)c(Cl)c3)c3ncccc3c2=O)O1` (stereo not drawn), with 218 to 220 °C. `Fc1cccc(-c2ncc(-c3cnc(-c4ccccc4)[nH]3)cn2)c1` gave a melting point of 240 °C. As for `Cc1cc(COc2ccc(S(=O)(=O)NC[C@@H](C(=O)NO)N3CCN(Cc4ccc(F)cc4)CC3)cc2)c2ccccc2n1`, the figure is 180 °C; as for `C1CCC(CC2CNCCNCCNCCNCCN2)CC1` (stereo not drawn), 87 to 89 °C.

In turn, `Cc1c(Cc2cccc(C(F)(F)F)c2)sc2c(-c3cccc(C(=O)NCCC#N)c3)cccc12` registered a melting point of 135 to 136 °C. Then `O=C(O)CCc1cccc(OCc2ccccc2Cl)c1OCc1ccccc1Cl`, with 131 to 132 °C; and `O=C1CCCCN1CCCOC1c2ccccc2C(=O)N1c1ccc2ccc(Cl)nc2n1` (stereo not drawn), with 140 °C; and `CC(C)(C)c1ccccc1N1CCN(C(=O)CCC(=O)O)CC1`, with 175 to 176 °C. As for `CC(=NOCCOc1ccc(CC2SC(=O)NC2=O)cc1)c1ccc(-c2ccc(C)cc2)cc1` (stereo not drawn), the figure is 184 to 186 °C; as for `CCCOc1nccc2c1C(c1ccccc1C(F)(F)F)C(C(=O)OCC)=C(C)N2` (stereo not drawn), 115 to 117 °C. As for `Cc1nn(-c2ccccc2)c(C)c1CC(N)=O`, the figure is 169 to 170 °C; as for `CN(C)S(=O)(=O)c1ccc(C(=O)O)c(C(F)(F)F)c1`, 189 °C; as for `COc1cc(C=CC(=O)Nc2cnc3c(C)cc(C)cc3c2-c2ccccc2Cl)cc(OC)c1OC`, 198 to 200 °C. In the case of `Cc1cc(C(=O)C=C(c2cc(Cl)cc(Cl)c2)C(F)(F)F)ccc1C(=O)O`, the melting point was in the range of 123 to 126 °C. Then `COc1ccc(-c2ccc(OC)nn2)c(OCC(O)CNC(C)(C)C)c1` (stereo not drawn), with 114 to 116 °C; and `O=C(O)CC(O)(Cn1cncn1)c1ccc(Cl)cc1Cl` (stereo not drawn), with 158 to 159 °C; and `CCOC(=O)CN1[C@H](C)CN(c2ccc(N)cc2C#N)C[C@@H]1C`, with 45 °C. As for `CCOC(=O)NNc1cc(C)c(-c2ccccc2)nn1`, the figure is 143 to 145 °C; as for `O=S(=O)(NCc1ccnc2ccccc12)c1ccc(-c2ccc(Cl)cc2)s1`, 185 to 186 °C; as for `CCCC[N+]([O-])=Cc1ccc(OCc2ccccc2)c(OC)c1`, 81.2 °C. Then `CCCCNc1nc(C)cc(Cl)n1`, with 35 to 36 °C. On to `O=C(CCN1CCOCC1)Nc1cc(-c2nnc(SCc3cccc(F)c3)o2)ccn1`, for which the melting point was in the range of 149 to 150 °C. Then `CC(C(=O)O)c1cccc2c(-c3ccc(Cl)cc3)nccc12` (stereo not drawn), with 200 to 202 °C; and `CCOC(=O)c1c(C)cc2[nH]c(=O)n(-c3ccccc3C(F)(F)F)c(=O)c2c1C`, with 175 to 176 °C; and `CCOCc1c[nH]c(=O)c(N)c1Sc1cc(C)cc(C)c1`, with 149 to 150 °C. Then `CS(=O)(=O)c1ccc(C(Cc2ccccc2F)C(=O)Nc2nc3ccccc3o2)cc1` (stereo not drawn), with 99 to 100 °C. On to `CCCCCCCCCCS(=O)(=O)CCCOCCn1c(CCC)nc2c(N)nc3ccccc3c21`, for which the melting point is 84 to 86 °C.

As for `CC(C)(C)c1cccc(Br)c1Oc1ccc(O)nn1`, the melting point was in the range of 255 to 257 °C. Compound `CN(Cc1cc2c(=O)c(C(=O)NCc3ccc(Cl)cc3)cn(C)c2s1)CC(O)c1cccnc1` (single isomer, unassigned; (+)) yielded a melting point of 132 to 135 °C.

In turn, `Cn1ncc(C(=O)N2CCOCC2)c1C(=O)Nc1ccn2nc(-c3ccnc(F)c3)nc2c1` came in with a melting point of more than 280 °C. For the compound `CC(C)C[C@@H](CO)NC(=O)[C@H](Cc1c[nH]cn1)NC(=O)[C@H](Cc1cccc2ccccc12)NC(=O)OCC1c2ccccc2-c2ccccc21`, the melting point was 118 to 120 °C. Then `CC(C)n1nc(-c2c(-c3ccccc3)nn3ccc(OCc4cccnc4)cc23)ccc1=O`, with 145 to 146 °C; and `O=C1CC2(Cc3cc4ccccc4n3C2)C(=O)N1` (stereo not drawn), with 215 to 220 °C; and `CCOC(=O)c1cc2c(nc1C)CCCCC2`, with 53 to 54 °C. `COC(=O)c1ccc2c(c1)CCN2Cc1cccc([N+](=O)[O-])c1` yielded a melting point of 99 to 100 °C.

The compound `CCOC(=O)C(=CNC1CC1)C(=O)c1c(F)c(F)c(Br)c(F)c1F` gave a melting point of 167 to 168 °C. Then `CCCc1nn(C)c2c(=O)[nH]c(-c3sccc3OCC)nc12`, with 151 to 152 °C. Then `C[C@@H]1CCCN1CCc1ccc2cc(-c3ccc(=O)[nH]n3)ccc2c1`, with 295 to 298 °C; and `CCOC(=O)c1ccc2nc3n(c(=O)c2c1)CCC3=Cc1ccccc1C`, with 184 to 185 °C. Then `COC=C(Br)c1c(C(F)(F)F)nc(C(F)F)c(C(=O)OC)c1CC1CC1`, with 79 to 79.5 °C; and `N#Cc1c(Cl)ccc2ccccc12`, with 82 to 83 °C; and `Cc1cc(-c2cnn3c(C(F)(F)F)cc(-c4ccc(C(F)(F)F)c(C)c4)nc23)cc(C)n1`, with 253 °C. The compound `Cc1c(S(=O)(=O)c2ccc(=O)[nH]n2)sc2ccc(Cl)cc12` had a melting point of 258 to 259 °C. As for `CC(C)[C@H](O)C(=O)NCCc1ccccc1`, the figure is 100 °C; as for `Cc1ccccc1-c1cc2cnc(N)nc2nc1N`, 300 to 302 °C. As for `COc1ccc2c(c1)[C@](C)(NC(=O)c1cc3ccccc3[nH]1)C(=O)N2c1ccc(F)cc1`, the figure is 287 to 288 °C; as for `CC(C)(C)c1ccc2c(Br)c3ccc(C(C)(C)C)cc3c(Br)c2c1`, 150 to 152 °C.

Compound `CON1C(=O)[C@H](Cc2c[nH]c3ccccc23)NC(=O)[C@@H]1CC(C)C` showed a melting point of 100 to 101 °C.

In turn, `CCOC(=O)CCCCC(=O)OC[C@@H]1CC(c2ccc(-c3ccc(N4C[C@H](Cn5ccnn5)OC4=O)cc3F)cn2)=NO1` came in with a melting point of 88 °C. Then `CC1=NC(SCc2ccccc2)=CC2=CN(C)NN21`, with 108 to 111 °C.

`CCC1(c2cccs2)OCC(=O)Nc2ccc(-c3csc(C#N)c3)cc21` (stereo not drawn) yielded a melting point of 202 to 204 °C. As for `c1ccc(C2=Nc3ccccc3-n3ccc4cccc2c43)cc1`, the figure is 128 to 136 °C.

Turning to `c1ccc(-c2ccnc(-c3ccc4cc[nH]c4c3)n2)cc1`, the melting point is 160 °C. Then `O=C1COc2cc(F)c(N3C(=O)C4=C(CCCC4)C3=O)cc2N1Cc1ccon1`, with 206 to 210 °C; and `OCC12COC(O1)C(O)C(O)C2O` (stereo not drawn), with 166 to 168 °C; and `CCc1cc(-c2ccc(Cl)cc2)nc2c(C(=O)Nc3cccc(S(N)(=O)=O)c3)cnn12`, with 252 to 253 °C. As for `Cc1ccc(-c2ccc3c(c2)C=C(C(=O)Nc2ccc(CN4CCCCC4)cc2)CO3)cc1`, the figure is 196 to 197 °C.

The compound `CCOC(=O)c1c(-c2ccccc2)c2ccc(OC)cc2[nH]c1=O` showed a melting point of 175 to 177 °C.

With `CC1Cc2ccccc2N1N` (stereo not drawn), the melting point is 37 to 38 °C. Then `C[C@@H](OC(=O)N1C(C)(C)COC1(C)C)C(C)(C)O`, with 53 °C; and `CON=C(C(=O)OC)c1ccccc1COc1ccc2c(c1)OCC2=NOC`, with 108 to 110 °C; and `Nc1n[nH]c2cccc(C(F)(F)F)c12`, with 129 to 130 °C. Then `COc1ccc(C(=O)Nc2c[nH]nc2C(=O)NCCC#N)cc1`, with 199 to 200 °C; and `COc1ccc(-c2cc3c(OC)cc(OC)cc3nc2OC)cc1`, with 106 to 107 °C; and `CC(C)(C)c1cc(N(C(=O)CCC(=O)O)c2cccc(C(=O)O)c2)cc(C(C)(C)C)c1O`, with 182 to 183 °C. Consider `Cc1ccc(C(=O)Nc2ccc(N3CCN(Cc4cccc(C#N)c4)CC3)cc2)c(-c2ccc(C(C)C)cc2)c1`, for which the melting point was 167 to 169 °C.

`FC(F)(F)C(c1cc(-c2ccccc2)c(-c2ccccc2)[nH]1)C(F)(F)F` returned a melting point of 112 to 114 °C. Then `CSc1ccc2[nH]c(=O)oc(=O)c2c1`, with 216 to 218 °C; and `CCC(C)(C)OC(=O)OOC1CC(C)(C)N(C(C)=O)C(C)(C)C1`, with 70 to 73 °C. As for `CCCCCCCc1ccc(-c2cnc([C@H]3CC[C@H](C#N)CC3)nc2)cc1`, the figure is 83.5 °C; as for `CN(NC(=O)c1ccccc1C(=O)O)c1nc2ccccc2o1`, 140 to 142 °C. In turn, `CNNc1ncn(-c2ccccc2)c(=O)n1` registered a melting point of 219 °C. Then `O=C(CCC1CCCCC1)NC1N=C(c2ccccc2)c2ccccc2NC1=NO` (stereo not drawn), with 196 °C; and `CCOCc1nc2c(N)nc3ccccc3c2n1CCCCS(=O)(=O)NC1CCCCC1`, with 197 to 198 °C. Then `COc1cc2nc(SC)c(C#N)c(C)c2cc1OCc1ccccc1`, with 171 to 174 °C; and `NCc1ccc2ccnc(N)c2c1`, with 114 to 117 °C. As for `CC(C)(C)c1cc(CCc2ccccc2NC(=O)NCCCN2CCOCC2)cc(C(C)(C)C)c1O`, the figure is 138 to 139 °C; as for `C=CCNc1nc(NC/C=C/c2ccccc2)c2scc(C)c2n1`, 82 to 84 °C.

Compound `C#CCCCc1c2c3c(nc(N)c2nn1CCC)CCCC3` returned a melting point of 167 to 169 °C.

Source of the values: a melting point compilation (Tetko et al.; mined from patent text by program, amines drawn as free bases though some values may be those of a salt).
